Laboratory results as given in paper PMC10051485 (Pharmaceuticals, 2023).
“Also recorded” adds a separate entry of the source.

Tests used:
Aβ1–42 = target: T1, Aβ1–42 (Homo sapiens, UniProt P05067); experiment: Anti-Aβ aggregation activity (Thioflavin T fluorescence assay); assay type: biochemical; settings: for IC50: ThT assay, Aβ1–42, 24 h, room temperature, pH 7.4, read-out: IC50 (µM) ± RSD, antiaggregation action on Aβ42
T1 construct: Amyloid beta (Aβ1–42) was purchased from the American Peptide Company; purchased American Peptide Company (Sunnyvale, CA, USA)
T1 sequence (P05067 672-713): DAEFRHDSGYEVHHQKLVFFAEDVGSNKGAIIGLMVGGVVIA
Experimental: Each compound was diluted in 50 mM Tris-HCl (pH 7.4) to achieve a concentration between 10 nM and 100 µM using 5 concentration points. A total of 1 µL of each sample solution was added to 96-well plates. […] The plate was incubated in the dark at room temperature for 24 h with no agitation. After an incubation period, 200 µL of 5 µM ThT in 50 mM Tris-HCl (pH 7.4) was added to each well. Fluorescence was measured on a SpectraMax GEMINI EM (Molecular Devices, Sunnyvale, CA, USA) dual scanning microplate spectrofluorometer with excitation and emission wavelengths at 446 nm and 500 nm, respectively. The percent of antiaggregation was calculated as follows: [1 − (Fsample − Fblank)/Fcontrol] × 100.

[1] = target: T2, Acetylcholinesterase (AChE) (Electrophorus electricus, UniProt O42275); experiment: Antiacetylcholinesterase activity (Ellman assay); assay type: biochemical, Electrophorus electricus (electric eel); settings: for inhibition at 100 µM: read-out: % Inhibition ± RSD of acetylcholinesterase; for % Inhibition ± RSD of acetylcholinesterase: at 100 µM
T2 construct: purchased Sigma type VI-S
T2 sequence (O42275 24-633): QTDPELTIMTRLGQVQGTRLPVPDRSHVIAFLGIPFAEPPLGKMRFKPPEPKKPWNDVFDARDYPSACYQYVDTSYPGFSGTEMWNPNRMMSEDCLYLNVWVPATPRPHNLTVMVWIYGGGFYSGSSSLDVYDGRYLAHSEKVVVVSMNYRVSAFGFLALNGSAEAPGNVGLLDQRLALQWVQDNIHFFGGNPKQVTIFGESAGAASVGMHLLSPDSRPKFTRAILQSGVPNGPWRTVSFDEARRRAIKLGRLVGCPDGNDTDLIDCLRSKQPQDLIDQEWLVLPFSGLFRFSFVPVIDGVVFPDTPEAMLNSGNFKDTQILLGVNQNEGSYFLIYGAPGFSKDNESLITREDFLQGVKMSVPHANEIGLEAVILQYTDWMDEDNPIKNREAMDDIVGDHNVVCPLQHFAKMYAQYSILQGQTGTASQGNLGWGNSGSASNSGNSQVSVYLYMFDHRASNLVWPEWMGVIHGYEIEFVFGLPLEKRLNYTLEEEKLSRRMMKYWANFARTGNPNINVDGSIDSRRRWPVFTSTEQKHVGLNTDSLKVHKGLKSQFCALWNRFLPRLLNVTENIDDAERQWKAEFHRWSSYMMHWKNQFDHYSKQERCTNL
Experimental: All the chemicals were purchased from commercial suppliers and were used without any purification. Acetylcholinesterase from Electrophorus electricus (electric eel) type VI-S was produced from Sigma. […] SK-N-SH human neuroblastoma cell line was obtained from the American Type Culture Collection (ATCC HTB-11). The melting point of all compounds was determined on an Electrothermal model 9100 capillary melting point apparatus. Infrared (IR) spectra were run on Fourier Transform Infrared Spectroscopy (FT-IR) (Nicolet 6700, Thermo Scientific, Waltham, MA, USA) using the direct compression technique and record in cm^−1. Proton and carbon nuclear magnetic resonance (^1H NMR, ^13C NMR) spectra were obtained on an Advance 300 MHz NMR Spectroscopy (DPX-3000, Bruker, Switzerland) at 300 MHz and 75.45 MHz, respectively. Chemical shifts (δ) were reported in parts per million (ppm). The NMR solvents used were deuterated dimethylsulfoxide (DMSO-d6, δ = 2.49 ppm) and deuterated chloroform (CDCl3, δ = 7.25 ppm). Mass spectra were determined on a LCQ Fleet Ion Trap Mass Spectrometry using the ESI method. Silica gel 60 (Merck, Art 7734) was used for column chromatography as an adsorbent. The ratio of sample and the adsorbent was about 1:40–60 by weight. The mobile phases developed for thin-layer chromatography (TLC) were generally applied for a column. TLC investigations routinely used for chromatographic separations were carried out on silica gel F254 coated aluminum sheets 20 × 20 cm (Merck, 0.2 mm thickness). The components were detected by visualization under ultraviolet (UV) light at λ of 254 and 365 nm. All solvents were reagent grade and, when necessary, were purified and dried by standard methods. Starting materials and reagents were obtained from commercial suppliers.
Acetylcholinesterase (AChE) inhibitory activity was assayed by modified Ellman’s method using 96-well microplates. […] The absorbance of the mixture in each well was measured at 405 nm by using a microplate reader. After adding 25 µL of 0.22 U/mL AChE in Buffer II into each well, the measurement of absorbance was carried out again at 405 nm and repeated every 45 s for 10 min cycles by a microplate reader (Infinite M200, Tecan, Switzerland). […] The assay was performed in triplicate. […] The percent of enzyme inhibition was calculated as follows: {[(A-B) − (C − D)]/(A − B)} × 100, where A and C were the absorbances of the control treatment and test compounds; and B and D were blank of control and test compounds.

[2] = Antioxidant activity (DPPH assay); settings: for IC50: DPPH 0.4 mM, 30 min in darkness, read-out: IC50 (µM) ± RSD, antioxidative activity
Experimental: Increased generation of free radicals also results in cytotoxicity from Aβ42. This effect might be associated with the Aβ1–42 mediated neurotoxicity. Therefore, it was intriguing to research the roles of the synthesized compounds in assisting oxidative stress, thus preventing cell death. By employing vitamin C as a positive control, the antioxidative properties of synthesized compounds were assessed using the DPPH assay. The activities were presented as the IC50 in Table 4.
Antioxidant activity of tested compounds was determined by the reaction of stable DPPH radical with some modification. Briefly, various concentrations of test compounds were added in 96-well plates and then the methanolic DPPH solution (0.4 mM, 0.1 mL) into each well. The reaction mixture was placed for 30 min in darkness. The degree of purple DPPH decolorization to yellow DPPH indicated the scavenging capacity of the test compounds. The absorbance of the mixture was determined at 517 nm using a microplate reader and L-ascorbic acid served as a positive control. The percent of antioxidant activity was calculated as follow: [1 − (Asample − Ablank)/Acontrol] × 100.

[3] = test system: SK-N-SH neuroblastoma cells; experiment: Cytotoxicity on SK-N-SH neuroblastoma cells (MTT assay); settings: MTT, 24 h; for Highest concentration that showed nontoxicity on SK-N-SH cells: tested 0–1000 µM; for % Viability ± RSD at the highest nontoxic concentration: at the concentration of Table 2
Experimental: (§1) SK-N-SH cells were pretreated for 3 h with the respective half-maximal inhibitory doses of the tested compounds (except 9 and 10) before incubating with 25 μM Aβ42 for 24 h to determine the neuroprotective effect against Aβ42-induced toxicity. The relative cell viability (compared with the control) was then assessed.
(§2) Quantitative measurement of cell viability was performed by MTT assay. Briefly, SK-N-SH cells were seeded at a density of 5 × 10^4 cells/100 µL into each well of 96-well plate and incubated at 37 °C in 5% CO2 for 24 h. After incubation, the tested compounds were added at different concentrations, from 0 to 1000 µM. After incubation for 24 h, 50 µL of 3-(4,5-dimethylthiazol-2-yl)-2,5-diphenyltetrazolium bromide (MTT) stock solution (1 mg/mL) was added to each well and incubated at 37 °C for 3 h. Absorbance (A) of each well was measured using a plate reader at a wavelength of 590 nm. Three independent experiments were performed, and results were expressed as mean ± SD. […] Each concentration was prepared in triplicate. […] After incubation for 24 h, 50 µL of MTT stock solution (1 mg/mL) was added to each well and incubated at 37 °C for 3 h. The absorbance (A) of each well was measured using a plate reader at a wavelength of 590 nm. Three independent experiments were performed, and results were expressed as mean ± SD.
(§3) The percent of cell viability was calculated as follow: (A590nm of treated cells/A590nm of untreated cells) × 100.

in vitro = settings: human
Experimental: as §1, §2, §3

[4] = test system: SK-N-SH neuroblastoma cells; experiment: Protection of SK-N-SH neuroblastoma against Aβ42-induced cell death (MTT assay); settings: for viability at 31.25 µM: Homo sapiens, SK-N-SH, read-out: % Viability ± RSD, neuroprotective effect against Aβ induced damage; for % Viability ± RSD, neuroprotective effect against Aβ induced damage: pretreated 3 h at IC50 of antiaggregation (compounds 9 and 10 at 31.25 µM), then 25 µM Aβ42 for 24 h
Experimental: The effects of Aβ42 on the viability of SK-N-SH neuroblastoma cells were investigated using an MTT reduction test. MTT is a tetrazolium salt that can be reduced to formazan by mitochondria dehydrogenase; the reaction is active only in living cells.
The relative cell viability (compared with the control) was then assessed.
as §2, §3

SK-N-SH cells = experiment: Morphological cell changes (phase contrast inverted microscope); assay type: cell-based, human; settings: 25 µM Aβ42, 24 h
Experimental: The effect of Aβ42 in inducing cell death was confirmed using a phase-contrast inverted microscope.
To determine the effect of designed compounds on cell morphology, the observation of cells on phase contrast inverted microscope was performed. […] After incubation, the medium was removed and replaced with various concentrations of the designed compound and incubated for 24 h. After cells were treated with compounds or Aβ1–42, media were removed and treated cells were washed once with phosphate buffer saline (PBS). Then, cells were observed under phase contrast inverted microscope at 400 magnifications.

SMILES | IC50 (Aβ1–42) [µM] | inhibition at 100 µM [1] [%] | IC50 [2] [µM] | Highest concentration that showed nontoxicity on SK-N-SH cells [3] | viability at 24 h (in vitro) [%] | Fold more potent against Aβ aggregation than methyl ester 7 (Aβ1–42; compared to compound 7) [fold] | viability at 31.25 µM [4] [%] | Morphology of SK-N-SH cells treated with Aβ42 and compound (SK-N-SH cells) | Fold less potent antioxidant than compound 5 ([2]; compared to compound 5) [fold] | % Viability ± RSD, neuroprotective effect against Aβ induced damage [4] [%] | % Inhibition ± RSD of acetylcholinesterase [1] [%] | % Viability ± RSD at the highest nontoxic concentration [3] [%] | Fold reduction of anti-Aβ aggregation versus compound 9 (Aβ1–42; p-CH3 (compound 9) replaced with p-F (compound 10)) [fold] | Fold increase of antioxidant potency versus compound 9 ([2]; p-CH3 (compound 9) converted to p-F (compound 10)) [fold]
Cc1[nH]c2ccc(Oc3ccccc3)cc2c1CC(=O)O [Compound 3, 2-Methyl-3-(carboxymethyl)-5-phenoxy Indole] | 18.8 | 29.3 | 47.1 | 31.25 µM | 90.4 ± 3.69 |  |  |  |  |  |  |  |  | 
CNC(=O)Cc1c(C)[nH]c2ccc(Oc3ccccc3)cc12 [Compound 4, 2-Methyl-3-(methylethanamide-2-yl)-5-phenoxy Indole] | 3.26 | 9.73 | 176 | 31.25 µM | 93.7 ± 3.23 | 4.3 | 72.3 ± 1.85 |  |  |  |  |  |  | 
Cc1[nH]c2ccc(Oc3ccccc3)cc2c1CC(=O)NS(C)(=O)=O [Compound 5, 2-Methyl-3-(methylsulfonylethanamide-2-yl)-5-phenoxy Indole] | 3.18 | -5.66 | 28.2 | 62.50 µM | 93 ± 1.02 |  |  | healthy cell bodies with neurites; also recorded: healthy cell bodies and neuritis |  |  |  |  |  | 
CCOC(=O)Cc1c(C)[nH]c2ccc(Oc3ccccc3)cc12 [Compound 6, 2-Methyl-3-(ethyl ethanoate-2-yl)-5-phenoxy Indole] | 19.1 | 19.9 | 190 | 31.25. µM | 89.5 ± 2.11 |  |  |  |  |  |  |  |  | 
COC(=O)Cc1c(C)[nH]c2ccc(Oc3ccccc3)cc12 [Compound 7, 2-Methyl-3-(methyl ethanoate-2-yl)-5-phenoxy Indole] | 14 | 11 | 145 | 31.25 µM | 93.4 ± 2.15 |  | 83.7 ± 2.21 |  |  |  |  |  |  | 
Cc1[nH]c2ccc(Oc3ccccc3)cc2c1CC(=O)NC#N [Compound 8, 2-Methyl-3-(cyanoethanamide-2-yl)-5-phenoxy Indole] | 20.6 | 6.61 | 85.5 | 62.50 µM | 93.8 ± 3.66 |  |  |  | 3.03 |  |  |  |  | 
Cc1ccc(CNC(=O)Cc2c(C)[nH]c3ccc(Oc4ccccc4)cc23)cc1 [Compound 9, 2-Methyl-3-(4-methylbenzylethanamide-2-yl)-5-phenoxy Indole] | 53.7 |  | 265 | 31.25 µM |  |  |  |  |  | 80.38 ± 3.54 | 12.5 ± 4.57 | 95.21 ± 3.00 |  | 
Cc1[nH]c2ccc(Oc3ccccc3)cc2c1CC(=O)NCc1ccc(F)cc1 [Compound 10, 2-Methyl-3-(4-fluorobenzylethanamide-2-yl)-5-phenoxy Indole] | 72.7 |  | 86 | 31.25 µM |  |  |  |  |  | 63.05 ± 2.70 | 12.45 ± 4.98 | 80.51 ± 3.96 | 1.4 | 3.08
Cc1[nH]c2ccc(Oc3ccccc3)cc2c1CC(=O)Nc1ccccc1 [Compound 11, 2-Methyl-3-(phenylethanamide-2-yl)-5-phenoxy Indole] | 13.1 | 30 | 111 | 15.63 µM | 94.3 ± 3.31 |  |  |  |  |  |  |  |  | 
Cc1ccc(S(=O)(=O)NC(=O)Cc2c(C)[nH]c3ccc(Oc4ccccc4)cc23)cc1 [Compound 12, 2-Methyl-3-(4-methylbenzesulfonylethanamide-2-yl)-5-phenoxy Indole] | 9.48 |  | 121 | 15.63 µM |  |  |  |  |  | 71.85 ± 1.82 | 31.52 ± 4.90 | 90.73 ± 4.64 |  | 
COc1cc(/C=C/C(=O)CC(=O)/C=C/c2ccc(O)c(OC)c2)ccc1O [Curcumin, reference compound] |  |  |  | 15.63 µM | 94.4 ± 1.83 |  |  |  |  |  |  |  |  | 
C[S+](C)[O-] [DMSO] |  |  |  |  |  |  |  |  |  |  |  | 92.08 ± 2.86 |  | 
O=C1O[C@H]([C@@H](O)CO)C(O)=C1O [Vitamin C, L-ascorbic acid, reference compound] |  |  | 13.3 |  |  |  |  |  |  |  |  |  |  | 
